Reference: US20260258081A1, “PEPTIDE HAVING HAIR GROWTH PROMOTING ACTIVITY, AND USE THEREOF” (CAREGEN CO., LTD., priority 2019, published 2026)

How the values were obtained:
Type in all cases: cell-based
[1] = test system: human dermal papilla cells; experiment: PCR expression of Lef-1, Cyclin D1 and c-Myc (activity of dermal papilla cells); details: peptide 0.5 uM, 5 uM or 50 uM, 1 day, serum-free medium, FIG. 2
Description: (§1) The promoting effect of the peptide consisting of the amino acid sequence of SEQ ID NO: 1 on the activity of hair follicle cells was to be confirmed. In detail, human dermal papilla cells were seeded in a 96-well plate at a density of 4×10^5 cells/well, and cultured for 16 hours. The culture medium was replaced with a serum-free medium, and the peptide was added thereto at a concentration of 0.5 uM, 5 uM, or 50 uM, and the cells were cultured for 1 day. Here, as a positive control group, 5 uM of Minoxidil was treated. After the cells were harvested, RNA was extracted therefrom and used for synthesis of cDNA by using a cDNA synthesis kit and PCR pre-mix (Intron, Korea).

[2] = test system: human hair follicle dermal papilla cells; experiment: β-catenin movement from cytoplasm to nucleus, western blotting of nuclear extract; details: peptide 0.5 uM, 5 uM or 50 uM, 1 day, serum-free medium; western blot; FIG. 1
Description: The promoting effect of the peptide consisting of the amino acid sequence of SEQ ID NO: 1 on the proliferation of hair follicle cells was to be confirmed. In detail, human hair follicle dermal papilla cells were seeded in a 96-well plate at a density of 4×10^5 cells/well, and cultured for 16 hours. The culture medium was replaced with a serum-free medium, and the peptide was added thereto at a concentration of 0.5 uM, 5 uM, or 50 uM, and the cells were cultured for 1 day. Here, as a positive control group, 5 uM of Minoxidil which is used as a hair loss treatment was treated. The cells were harvested and nuclei thereof were isolated by using a nuclear protein extraction kit (Merck, USA). Then, western blotting was performed with respect to β-catenin which is a factor related to proliferation of the dermal papilla cells by using β-catenin antibodies (Santacruz biotechnology, USA).

[3] = test system: human hair follicle outer root sheath cells; experiment: PCR expression of HA3-II, Keratin 5, Keratin 14 and Keratin 19 (activity of outer root sheath cells); details: peptide 0.5 uM, 5 uM or 50 uM, 1 day, serum-free medium, FIG. 7
Description: as §1, with “follicle outer root sheath” for “follicle”, “human hair follicle outer root sheath” for “human dermal papilla”, “of EGF” for “of Minoxidil”, “of cNDA” for “of cDNA”, “PCR pre-mix. Then, PCR was performed by using the primer of GAPDH shown in Table 2 and primers of HA3-II, Keratin 5, Keratin 14, and Keratin […] shown in Table 6.” for “PCR pre-mix (Intron, Korea).”

[4] = test system: human dermal papilla cells; experiment: PCR expression of DKK-1 under DHT stimulation; details: DHT 10 ug/ml as stimulator, peptide 0.5 uM, 5 uM or 50 uM, 1 day, serum-free medium, FIG. 5
Description: The inhibitory effect of the peptide consisting of the amino acid sequence of SEQ ID NO: 1 on the expression of DKK-1, which is a hair loss-related factor, in hair follicle cells was to be confirmed. In detail, human dermal papilla cells were seeded in a 96-well plate at a density of 4×10^5 cells/well, and cultured for 16 hours. After the culture medium was replaced with a serum-free medium, dihydrotestosterone (DHT) as a stimulator was added thereto at a concentration of 10 ug/ml while peptide was added thereto at a concentration of 0.5 uM, 5 uM, or 50 uM. Then, the cells were cultured for 1 day. As a positive control, 50 uM of Finasteride which is a drug inhibiting male hormones was treated. Here, DHT is known as a hair loss hormone that increases the expression of DKK-1, which is a hair loss-inducible factor, by activating an androgen receptor. After the cells were harvested, RNA was extracted therefrom and used for synthesis of cNDA by using a cDNA synthesis kit and PCR pre-mix.

[5] = test system: human dermal papilla cells; experiment: Western blotting of apoptosis-related proteins Bax, Cleaved PARP-1, Cleaved Caspase-3, Bcl2; details: peptide 0.5 uM, 5 uM or 50 uM, 1 day, serum-free medium; western blot; FIG. 4
Description: The inhibitory effect of the peptide consisting of the amino acid sequence of SEQ ID NO: 1 on the control of expression of apoptosis-related proteins of hair follicle cells was to be confirmed. In detail, human dermal papilla cells were seeded in a 96-well plate at a density of 4×10^5 cells/well, and cultured for 16 hours. The culture medium was replaced with a serum-free medium, and the peptide was added thereto at a concentration of 0.5 uM, 5 uM, or 50 uM, and the cells were cultured for 1 day. Here, as a positive control group, 5 uM of Minoxidil was treated. Cell lysates were prepared by harvesting the cell, and then, western blotting was performed with respect to Bax, Cleaved PARP-1, Cleaved Caspase-3, or Bcl2 by using Bax antibodies, Cleaved PARP-1 antibodies, Cleaved Caspase-3 antibodies, or Bcl2 antibodies (Santacruz biotechnology, USA), respectively.

[6] = test system: human hair follicle germinal matrix cells; experiment: PCR expression of MSX2 (activity of germinal matrix cells); details: peptide 0.5 uM, 5 uM or 50 uM, 1 day, serum-free medium, FIG. 6
Description: as §1, with “of germinal matrix” for “of hair follicle”, “human hair follicle” for “human”, “of EGF” for “of Minoxidil”, “of cNDA” for “of cDNA”, “PCR pre-mix.” for “PCR pre-mix (Intron, Korea).”

[7] = test system: human dermal papilla cells; experiment: PCR expression of growth factors VEGF, bFGF, KGF and HGF; details: peptide 0.5 uM, 5 uM or 50 uM, 1 day, serum-free medium, FIG. 3
Description: as §1, with “activity of a growth factor” for “activity”, “of cNDA” for “of cDNA”, “PCR pre-mix.” for “PCR pre-mix (Intron, Korea).”

TKVFPQD [SEQ ID NO: 1]
expression of Cyclin D1 [1]: increased | expression of Lef-1 [1]: increased | expression of c-Myc [1]: increased | movement of β-catenin from the cytoplasm to the nucleus [2]: increased | expression of HA3-II [3]: increase | expression of Keratin 5 [3]: increase | expression of Keratin 14 [3]: increase | expression of Keratin 19 [3]: increase | expression pathway of DKK-1 [4]: inhibit | expression of Bax [5]: decreased | expression of Bcl2 (anti-apoptosis-related protein) [5]: increased | expression of Cleaved Caspase-3 [5]: decreased | expression of Cleaved PARP-1 [5]: decreased | expression of MSX2 [6]: increase | expression of HGF [7]: increased | expression of KGF [7]: increased | expression of VEGF [7]: increased | expression of bFGF [7]: increased
